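Where inhibition never reached the appropriate level, the endpoint shown equals the highest concentration tested. Otherwise, values were interpolated linearly from a five-concentration, 48-hour dose response in 96-well plates. TGI: concentration producing complete growth inhibition.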
Assays:
Test in all cases: NCI tumour cell line growth inhibition, 48 h
SF-539 CNS = tested on: SF-539 CNS
SNB-78 CNS = tested on: SNB-78 CNS
NCI-H23 lung = tested on: NCI-H23 lung
NCI-H226 lung = tested on: NCI-H226 lung
HOP-62 NSCLC = tested on: HOP-62 NSCLC
SK-MEL-5 melanoma = tested on: SK-MEL-5 melanoma
KM12 colon = tested on: KM12 colon
K-562 leukemia = tested on: K-562 leukemia
IGROV1 ovarian = tested on: IGROV1 ovarian
SN12C renal = tested on: SN12C renal
DMS 273 small cell lung = tested on: DMS 273 small cell lung

CC(C)(C)N=NC(C)(C)N=C=O
TGI (SF-539 CNS): > 100 µM | TGI (SNB-78 CNS): > 100 µM | TGI (NCI-H23 lung): > 100 µM | TGI (NCI-H226 lung): > 100 µM | TGI (HOP-62 NSCLC): > 100 µM | TGI (SK-MEL-5 melanoma): > 100 µM | TGI (KM12 colon): > 100 µM | TGI (K-562 leukemia): > 100 µM | TGI (IGROV1 ovarian): > 100 µM | TGI (SN12C renal): > 100 µM | TGI (DMS 273 small cell lung): > 100 µM

CC[C@]12C=CCN3CCC4(c5cc([C@@]6(C(=O)OC)CC7CN(CCc8c6[nH]c6ccccc86)CC6CCCCC67)c(OC)cc5N(C)C4[C@](O)(C(=O)OC)C1OC(C)=O)[C@@H]32 (stereo partly specified)
TGI (SF-539 CNS): < 0.01 µM | TGI (SNB-78 CNS): 18.8 µM | TGI (NCI-H23 lung): < 0.01 µM | TGI (NCI-H226 lung): 2.42 µM | TGI (HOP-62 NSCLC): 6.07 µM | TGI (SK-MEL-5 melanoma): 1.53 µM | TGI (KM12 colon): 15.7 µM | TGI (K-562 leukemia): > 21.7 µM | TGI (IGROV1 ovarian): 0.651 µM | TGI (SN12C renal): 17.5 µM

O=[N+]([O-])c1ccc(-c2csc(=[N+]3CCCCC3)s2)cc1
TGI (SF-539 CNS): > 100 µM | TGI (SNB-78 CNS): > 100 µM | TGI (NCI-H23 lung): 22.8 µM | TGI (HOP-62 NSCLC): 11.6 µM | TGI (SK-MEL-5 melanoma): 17.8 µM | TGI (KM12 colon): > 100 µM | TGI (K-562 leukemia): > 100 µM | TGI (IGROV1 ovarian): > 100 µM | TGI (SN12C renal): > 100 µM | TGI (DMS 273 small cell lung): > 100 µM

c1cncc(CSc2nc3ccccc3nc2-c2cccs2)c1
TGI (SF-539 CNS): > 100 µM | TGI (SNB-78 CNS): > 100 µM | TGI (NCI-H23 lung): > 100 µM | TGI (NCI-H226 lung): > 100 µM | TGI (HOP-62 NSCLC): > 100 µM | TGI (SK-MEL-5 melanoma): > 100 µM | TGI (KM12 colon): > 100 µM | TGI (K-562 leukemia): > 100 µM | TGI (SN12C renal): > 100 µM | TGI (DMS 273 small cell lung): > 100 µM

COc1ccc(-c2cc3cc(Cl)cc(Cl)c3oc2=O)cc1OC
TGI (SF-539 CNS): > 100 µM | TGI (NCI-H23 lung): > 100 µM | TGI (NCI-H226 lung): > 100 µM | TGI (HOP-62 NSCLC): > 100 µM | TGI (SK-MEL-5 melanoma): > 100 µM | TGI (KM12 colon): > 100 µM | TGI (K-562 leukemia): > 100 µM | TGI (IGROV1 ovarian): > 100 µM | TGI (SN12C renal): > 100 µM

CCCCN(CCCC)CC(C(C)=O)C(c1ccccc1)c1c(O)c2ccccc2oc1=O (stereo unspecified)
TGI (SF-539 CNS): > 100 µM | TGI (SNB-78 CNS): > 100 µM | TGI (NCI-H23 lung): > 100 µM | TGI (NCI-H226 lung): > 100 µM | TGI (HOP-62 NSCLC): > 100 µM | TGI (SK-MEL-5 melanoma): > 100 µM | TGI (KM12 colon): > 100 µM | TGI (K-562 leukemia): > 100 µM | TGI (IGROV1 ovarian): > 100 µM | TGI (SN12C renal): > 100 µM | TGI (DMS 273 small cell lung): > 100 µM

C=C1[C@@H]2CCC3[C@]4(C)C(CC[C@@]5(C)C(=O)O[C@H](O)[C@@H]45)[C@H](O)[C@]3(C2)[C@H]1OC1OC(CO)C(O)C(O)C1O (stereo partly specified)
TGI (SF-539 CNS): > 50 µM | TGI (NCI-H23 lung): > 50 µM | TGI (NCI-H226 lung): > 50 µM | TGI (HOP-62 NSCLC): > 50 µM | TGI (SK-MEL-5 melanoma): > 50 µM | TGI (KM12 colon): > 50 µM | TGI (K-562 leukemia): > 50 µM | TGI (IGROV1 ovarian): > 50 µM | TGI (SN12C renal): > 50 µM

CN(C)CCNCCCNc1c2ccccc2nc2cccc([N+](=O)[O-])c12
TGI (SF-539 CNS): 0.263 µM | TGI (NCI-H23 lung): < 0.0186 µM | TGI (NCI-H226 lung): 0.102 µM | TGI (HOP-62 NSCLC): 0.154 µM | TGI (SK-MEL-5 melanoma): 0.0507 µM | TGI (KM12 colon): 0.111 µM | TGI (K-562 leukemia): < 0.0184 µM | TGI (IGROV1 ovarian): 0.173 µM | TGI (SN12C renal): 0.279 µM

C/C(=C\CSCC(N)C(=O)O)CC/C=C(\C)CNc1ccccc1 (stereo unspecified)
TGI (SF-539 CNS): > 100 µM | TGI (NCI-H23 lung): > 100 µM | TGI (NCI-H226 lung): > 100 µM | TGI (HOP-62 NSCLC): > 100 µM | TGI (SK-MEL-5 melanoma): > 100 µM | TGI (KM12 colon): > 100 µM | TGI (K-562 leukemia): > 100 µM | TGI (IGROV1 ovarian): > 100 µM | TGI (SN12C renal): > 100 µM

O=C([C@H](O)[C@@H](O)c1cccc(Cl)c1)C12CC3CC(CC(C3)C1)C2
TGI (SF-539 CNS): 3.61 µM | TGI (NCI-H23 lung): 3.84 µM | TGI (NCI-H226 lung): 12.3 µM | TGI (HOP-62 NSCLC): 7.9 µM | TGI (SK-MEL-5 melanoma): 14.8 µM | TGI (KM12 colon): 6.01 µM | TGI (K-562 leukemia): > 100 µM | TGI (IGROV1 ovarian): 2.68 µM | TGI (SN12C renal): 3.95 µM

O=C(c1ccc([N+](=O)[O-])cc1)N1CCCC1
TGI (SF-539 CNS): > 100 µM | TGI (NCI-H23 lung): > 100 µM | TGI (NCI-H226 lung): > 100 µM | TGI (HOP-62 NSCLC): > 100 µM | TGI (SK-MEL-5 melanoma): > 100 µM | TGI (KM12 colon): > 100 µM | TGI (K-562 leukemia): > 100 µM | TGI (IGROV1 ovarian): > 100 µM | TGI (SN12C renal): > 100 µM

CCN(CC)C(=S)N/N=C(/c1ccccc1)c1ccccn1
TGI (SF-539 CNS): 4.24 µM | TGI (NCI-H23 lung): > 43.3 µM | TGI (NCI-H226 lung): 7.65 µM | TGI (HOP-62 NSCLC): 13.6 µM | TGI (SK-MEL-5 melanoma): 4.83 µM | TGI (KM12 colon): 19.6 µM | TGI (K-562 leukemia): > 100 µM | TGI (IGROV1 ovarian): 6.72 µM | TGI (SN12C renal): 1.35 µM

COC1(CC[C@H](C)COC2OC(CO)C(O)C(O)C2O)O[C@H]2C[C@H]3[C@@H]4CC=C5C[C@@H](OC6OC(CO)C(OC7OC(C)C(O)C(O)C7O)C(O)C6OC6OC(C)C(O)C(O)C6O)CC[C@]5(C)[C@H]4CC[C@]3(C)[C@H]2[C@@H]1C (stereo partly specified)
TGI (SF-539 CNS): 4.05 µM | TGI (NCI-H23 lung): 19.2 µM | TGI (NCI-H226 lung): 31.7 µM | TGI (HOP-62 NSCLC): 4.09 µM | TGI (SK-MEL-5 melanoma): > 28.6 µM | TGI (KM12 colon): 6.65 µM | TGI (K-562 leukemia): > 100 µM | TGI (IGROV1 ovarian): 20.1 µM | TGI (SN12C renal): > 100 µM

CN(C)CCCNC(=O)N/N=C/c1ccccc1
TGI (SF-539 CNS): > 100 µM | TGI (SNB-78 CNS): > 100 µM | TGI (NCI-H226 lung): > 100 µM | TGI (SK-MEL-5 melanoma): > 100 µM | TGI (KM12 colon): > 100 µM | TGI (K-562 leukemia): > 100 µM | TGI (IGROV1 ovarian): > 100 µM | TGI (SN12C renal): > 100 µM | TGI (DMS 273 small cell lung): > 100 µM

N#CCCN(CCC#N)c1ccc(C(N=Nc2ccccc2)=Nc2ccc(F)cc2)cc1
TGI (SF-539 CNS): > 100 µM | TGI (NCI-H23 lung): > 100 µM | TGI (NCI-H226 lung): > 100 µM | TGI (HOP-62 NSCLC): > 100 µM | TGI (SK-MEL-5 melanoma): > 100 µM | TGI (KM12 colon): > 100 µM | TGI (K-562 leukemia): > 100 µM | TGI (IGROV1 ovarian): > 100 µM | TGI (SN12C renal): > 100 µM

CC(=O)Oc1ccc2c(-c3ccccc3)c(Oc3ccc(Cl)cc3)c(=O)oc2c1
TGI (SF-539 CNS): 31.1 µM | TGI (NCI-H23 lung): 44.6 µM | TGI (NCI-H226 lung): 32.5 µM | TGI (HOP-62 NSCLC): 34.9 µM | TGI (SK-MEL-5 melanoma): 32.6 µM | TGI (KM12 colon): 27.5 µM | TGI (K-562 leukemia): 31.6 µM | TGI (IGROV1 ovarian): 29.4 µM | TGI (SN12C renal): 39.2 µM

From PubChem BioAssay (NCI)
